These results are taken from patent US9221756B2, “Pyrrole derivatives” (priority 2011, dated 2015).

Where two headings read alike, the source gives them in different places. A value given as a limit tells only on which side of the number the result lay.

The target in data set [1] is pneumolysin (Streptococcus pneumoniae serotype 2, UniProt Q04IN8). Kind of data set: Inhibition of the haemolytic activity of pneumolysin (sheep erythrocytes). The class given is cell-based. To be noted: class symbols of Table 1.
Data set [2] is described as follows: Conversion of prodrug derivatives to active inhibitors in mouse plasma. Conditions: 37° C., 10 μM start, prodrug remaining; for [ ] (μM) t0 min. Prodrug: 0 min; for [ ] (μM) t15 min. Prodrug: 15 min; for [ ] (μM) t30 min. Prodrug: 30 min; for [ ] (μM) t60 min. Prodrug: 60 min; for [ ] (μM) t120 min. Prodrug: 120 min. The class given is in vitro ADME. As for the experimental part:
The samples were then analysed by LC-MS/MS to obtain the amount of active compound appearing and prodrug derivative remaining over time. The mouse plasma assay system is considered to be a good model for human behaviour. Nevertheless data obtained in a human plasma assay system was obtained in some cases.
Prodrug derivatives were assessed in the mouse and human plasma stability assay at a concentration of 10 μM. Test compounds were diluted in DMSO to a final stock concentration of 10 mM. For the purpose of the assay, the stocks prepared were further diluted in DMSO to a concentration of 400 μM and […] were added to 195 μl of mouse or human plasma (pH 7.4) and then incubated at 37° C. The final concentration of DMSO in the plate was 2.5% (v/v). Reactions were terminated at 0, 15, 30, 60 and 120 min after incubation by adding 400 μl of acetonitrile containing 0.55 μM metoprolol and 1% (v/v) formic acid. The plate was then centrifuged at 3000 rpm, for 45 min, at 4° C. 80 μl of supernatant were transferred into a conical bottom 96 well glass coated plate. 40 μl of water were added prior to analysis for prodrug derivative and active species by LC-MS/MS. This assay was performed by a contract research organisation, Cyprotex Discovery Limited, UK, at the request of the inventors at Leicester.
(1) The active compound was quantified using a 6 point calibration curve prepared in deactivated mouse and human plasma. (2) The percentage of parent compound remaining at each time point relative to 0 min sample was calculated from LC-MS/MS peak area ratios (compound peak area/internal standard peak area). This percentage was then used to determine the concentration of the parent compound at each time point in reference to the starting concentration (10 μM) at time 0 min.

[3] abbreviates: IC50, inhibition of pneumolysin-induced haemolysis of sheep erythrocytes.
Where [4] appears, read: inhibition of pneumolysin-induced haemolysis of sheep erythrocytes, read-out: IC50.

Sequence of pneumolysin (Q04IN8 whole entry): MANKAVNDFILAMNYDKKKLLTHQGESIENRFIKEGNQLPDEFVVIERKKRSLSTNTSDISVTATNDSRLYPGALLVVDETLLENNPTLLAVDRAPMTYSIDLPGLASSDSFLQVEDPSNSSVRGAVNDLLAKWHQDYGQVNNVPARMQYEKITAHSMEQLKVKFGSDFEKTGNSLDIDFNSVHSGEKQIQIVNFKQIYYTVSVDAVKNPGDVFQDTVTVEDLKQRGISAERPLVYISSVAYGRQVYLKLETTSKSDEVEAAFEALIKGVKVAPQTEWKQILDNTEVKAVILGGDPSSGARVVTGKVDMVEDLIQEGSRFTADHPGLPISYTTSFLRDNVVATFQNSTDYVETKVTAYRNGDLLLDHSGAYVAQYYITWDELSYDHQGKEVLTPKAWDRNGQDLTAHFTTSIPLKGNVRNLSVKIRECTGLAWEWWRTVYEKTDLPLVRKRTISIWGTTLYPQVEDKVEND

In the case of `CCOC(=O)c1c(OC(C)=O)c(OC(C)=O)c(C(=O)N(C)C)n1-c1ccc(OC)cc1` [UL1-044, 2-(dimethylcarbamoyl)-5-(ethoxycarbonyl)-1-(4-methoxyphenyl)-1H-pyrrole-3,4-diyl diacetate], the IC50 (in general, the point on the concentration scale where inhibition reaches its midpoint) in data set [1] (setting [3]) was < 10 µM. In data set [2], the “[ ] (μM) t0 min. Prodrug” value was found to be 10 µM, the “[ ] (μM) t15 min. Prodrug” value worked out at 0 µM, the “[ ] (μM) t30 min. Prodrug” value was 0 µM and the “[ ] (μM) t60 min. Prodrug” value stood at 0 µM. Moreover, the “[ ] (μM) t120 min. Prodrug” value in data set [2] was found to be 0 µM.

With `CCOC(=O)c1c(OC(=O)N(C)C)c(OC(=O)N(C)C)c(C(=O)N(C)C)n1-c1ccc(OC)cc1` [UL1-063, ethyl 5-(dimethylcarbamoyl)-3,4-bis((dimethylcarbamoyl)oxy)-1-(4-methoxyphenyl)-1H-pyrrole-2-carboxylate], in data set [1] (setting [4]), the IC50 is > 60 µM. Moreover, in data set [2], the “[ ] (μM) t0 min. Prodrug” value turned out to be 10 µM, the “[ ] (μM) t15 min. Prodrug” value turned out to be 10 µM, the “[ ] (μM) t30 min. Prodrug” value came out at 9.20 µM and the “[ ] (μM) t60 min. Prodrug” value stood at 9.40 µM. Besides, in data set [2], the “[ ] (μM) t120 min. Prodrug” value came out at 8.50 µM.

Turning to `CCOC(=O)c1c(OC(=O)N2CCN(C)CC2)c(OC(=O)N2CCN(C)CC2)c(C(=O)N(C)C)n1-c1ccc(OC)cc1` [UL1-064, 2-(dimethylcarbamoyl)-5-(ethoxycarbonyl)-1-(4-methoxyphenyl)-1H-pyrrole-3,4-diyl bis(4-methylpiperazine-1-carboxylate)], the 50% inhibitory concentration (IC50) in data set [1] (setting [4]) was > 60 µM. In addition, in data set [2], the “[ ] (μM) t0 min. Prodrug” value came out at 10 µM, the “[ ] (μM) t15 min. Prodrug” value amounted to 3.10 µM, the “[ ] (μM) t30 min. Prodrug” value stood at 7.00 µM and the “[ ] (μM) t60 min. Prodrug” value was determined as 5.00 µM. For the same compound, the “[ ] (μM) t120 min. Prodrug” value in data set [2] was 2.20 µM.

Regarding `CCOC(=O)c1c(OC(=O)N2CCC(N3CCCCC3)CC2)c(OC(=O)N2CCC(N3CCCCC3)CC2)c(C(=O)N(C)C)n1-c1ccc(OC)cc1` [UL1-065, 2-(dimethylcarbamoyl)-5-(ethoxycarbonyl)-1-(4-methoxyphenyl)-1H-pyrrole-3,4-diyl bis([1,4′-bipiperidine]-1′-carboxylate)], the IC50 in data set [1] (setting [4]) was > 60 µM. For the same compound, in data set [2], the “[ ] (μM) t0 min. Prodrug” value worked out at 10 µM, the “[ ] (μM) t15 min. Prodrug” value stood at 4.21 µM, the “[ ] (μM) t30 min. Prodrug” value was determined as 3.72 µM and the “[ ] (μM) t60 min. Prodrug” value came out at 2.57 µM. For the same compound, in data set [2], the “[ ] (μM) t120 min. Prodrug” value came out at 1.14 µM.

Take `CCOC(=O)c1c(O)c(OC(=O)N(C)C)c(C(=O)N(C)C)n1-c1ccc(OC)cc1` [UL1-066, ethyl 5-(dimethylcarbamoyl)-4-((dimethylcarbamoyl)oxy)-3-hydroxy-1-(4-methoxyphenyl)-1H-pyrrole-2-carboxylate]: in data set [1] (setting [4]), the IC50 is < 10 µM. In data set [2], the “[ ] (μM) t0 min. Prodrug” value was 10 µM, the “[ ] (μM) t15 min. Prodrug” value was determined as 9.90 µM, the “[ ] (μM) t30 min. Prodrug” value came to 10.00 µM and the “[ ] (μM) t60 min. Prodrug” value worked out at 9.78 µM. Moreover, the “[ ] (μM) t120 min. Prodrug” value in data set [2] was 9.50 µM.

With `CCOC(=O)c1c(OC(=O)C(C)C)c(OC(=O)C(C)C)c(C(=O)N(C)C)n1-c1ccc(OC)cc1` [UL1-067, 2-(dimethylcarbamoyl)-5-(ethoxycarbonyl)-1-(4-methoxyphenyl)-1H-pyrrole-3,4-diyl bis(2-methylpropanoate)], the IC50 in data set [1] (setting [3]) is 20 to 60 µM. Further, in data set [2], the “[ ] (μM) t0 min. Prodrug” value is 10 µM, the “[ ] (μM) t15 min. Prodrug” value turned out to be 0 µM, the “[ ] (μM) t30 min. Prodrug” value is 0 µM and the “[ ] (μM) t60 min. Prodrug” value came out at 0 µM. Further, in data set [2], the “[ ] (μM) t120 min. Prodrug” value is 0 µM.

Take `CCOC(=O)c1c(OC(=O)C(C)(C)C)c(OC(=O)C(C)(C)C)c(C(=O)N(C)C)n1-c1ccc(OC)cc1` [UL1-068, 2-(dimethylcarbamoyl)-5-(ethoxycarbonyl)-1-(4-methoxyphenyl)-1H-pyrrole-3,4-diyl bis(2,2-dimethylpropanoate)]: the IC50 in data set [1] (inhibition of pneumolysin-induced haemolysis of sheep erythrocytes) is > 60 µM. In data set [2], the “[ ] (μM) t0 min. Prodrug” value stood at 10 µM, the “[ ] (μM) t15 min. Prodrug” value is 3.02 µM, the “[ ] (μM) t30 min. Prodrug” value was 1.00 µM and the “[ ] (μM) t60 min. Prodrug” value turned out to be 0.136 µM. For the same compound, the “[ ] (μM) t120 min. Prodrug” value in data set [2] worked out at 0 µM.

Regarding `CCOC(=O)c1c(O)c(OS(N)(=O)=O)c(C(=O)N(C)C)n1-c1ccc(OC)cc1` [UL1-069, ethyl 5-(dimethylcarbamoyl)-3-hydroxy-1-(4-methoxyphenyl)-4-(sulfamoyloxy)-1H-pyrrole-2-carboxylate], the IC50 in data set [1] (setting [3]) was < 10 µM. In data set [2], the “[ ] (μM) t0 min. Prodrug” value worked out at 10 µM, the “[ ] (μM) t15 min. Prodrug” value came out at 9.90 µM, the “[ ] (μM) t30 min. Prodrug” value amounted to 9.70 µM and the “[ ] (μM) t60 min. Prodrug” value turned out to be 9.60 µM. Also, in data set [2], the “[ ] (μM) t120 min. Prodrug” value is 9.90 µM.

As for `CCOC(=O)c1c(O)c(OC(=O)N2CCC(N3CCCCC3)CC2)c(C(=O)N(C)C)n1-c1ccc(OC)cc1` [UL1-071, 2-(dimethylcarbamoyl)-5-(ethoxycarbonyl)-4-hydroxy-1-(4-methoxyphenyl)-1H-pyrrol-3-yl [1,4′-bipiperidine]-1′-carboxylate], the IC50 in data set [1] (setting [4]) was 20 to 60 µM. For the same compound, in data set [2], the “[ ] (μM) t0 min. Prodrug” value was 10 µM, the “[ ] (μM) t15 min. Prodrug” value was determined as 9.50 µM, the “[ ] (μM) t30 min. Prodrug” value turned out to be 9.00 µM and the “[ ] (μM) t60 min. Prodrug” value is 8.72 µM. For the same compound, in data set [2], the “[ ] (μM) t120 min. Prodrug” value came to 7.39 µM.

For the compound `CCOC(=O)c1c(OP(=O)(OCC)OCC)c(OP(=O)(OCC)OCC)c(C(=O)N(C)C)n1-c1ccc(OC)cc1` [UL1-092, ethyl 3,4-bis((diethoxyphosphoryl)oxy)-5-(dimethylcarbamoyl)-1-(4-methoxyphenyl)-1H-pyrrole-2-carboxylate], the IC50 in data set [1] (setting [4]) is > 60 µM. Further, in data set [2], the “[ ] (μM) t0 min. Prodrug” value was found to be 10 µM, the “[ ] (μM) t15 min. Prodrug” value was found to be 5.12 µM, the “[ ] (μM) t30 min. Prodrug” value was 4.67 µM and the “[ ] (μM) t60 min. Prodrug” value stood at 4.59 µM. For the same compound, the “[ ] (μM) t120 min. Prodrug” value in data set [2] turned out to be 3.70 µM.

As for `CCOC(=O)c1c(O)c(O)c(C(=O)OCC)n1-c1ccc(OCCOC)cc1` [UL2-034, diethyl 3,4-dihydroxy-1-(4-(2-methoxyethoxy)phenyl)-1H-pyrrole-2,5-dicarboxylate], the IC50 in data set [1] (setting [3]) is < 10 µM.

`CCOC(=O)c1c(O)c(O)c(C(=O)OCC)n1-c1ccc(OCCOCCOCCOC)cc1` [UL2-035, diethyl 3,4-dihydroxy-1-(4-(2-(2-(2-methoxyethoxy)ethoxy)ethoxy)phenyl)-1H-pyrrole-2,5-dicarboxylate]: the IC50 in data set [1] (setting [3]) is < 10 µM.

For the compound `CCOC(=O)c1c(O)c(O)c(C(=O)OCC)n1-c1ccc(OCCOCCOCCOCCOC)cc1` [UL2-036, diethyl 1-(4-(2,5,8,11-tetraoxatridecan-13-yloxy)phenyl)-3,4-dihydroxy-1H-pyrrole-2,5-dicarboxylate], the IC50 in data set [1] (setting [3]) was < 10 µM.

For `CCOC(=O)c1c(O)c(O)c(C(=O)OCC)n1-c1ccc(OCCCN2CCOCC2)cc1` [UL2-037, diethyl 3,4-dihydroxy-1-(4-(3-morpholinopropoxy)phenyl)-1H-pyrrole-2,5-dicarboxylate], the IC50 in data set [1] (setting [3]) is < 10 µM.

Regarding `CCOC(=O)c1c(O)c(O)c(C(=O)OCC)n1-c1ccc(OCc2ccc(OC)cc2)cc1` [UL2-038, diethyl 3,4-dihydroxy-1-(4-((4-methoxybenzyl)oxy)phenyl)-1H-pyrrole-2,5-dicarboxylate], the IC50 in data set [1] (setting [3]) was < 10 µM.

Regarding `CN(C)C(=O)c1c(O)c(O)c(C(=O)N(C)C)n1-c1ccc(F)cc1` [ULI-008, 1-(4-fluorophenyl)-3,4-dihydroxy-N^2,N^2,N^5,N^5-tetramethyl-1H-pyrrole-2,5-dicarboxamide], the IC50 in data set [1] (setting [3]) is < 10 µM.
